Data set [1] concerns glioblastoma cell line U3013. The data set can be described thus: ATP viability assay (CellTiter-Glo). The data set is classed as cell-based, human. The protocol: The human melanoma cell line SK-MEL-28 is a well established reference cell line in melanoma research (Goodfellow M, et al. J. Natl. Cancer Inst. 59: 221-226, 1977). Cells were cultured in MEM supplemented with 10% FCS. Glioblastoma cell line (U3013) was generated directly from patient-derived tumors (Kitambi et al. Cell. 2014: 157(2):313-28) and grown in serum-free media supplemented with N2, B27, EGF, and FGF-2 (20 ng/ml) using previously described methodology (Pollard et al., 2009).
Culture plates were pre-coated with laminin (Sigma) for 3 hr at 10 ug/ml prior to use and confluent cells were split 1:3 to 1:5 using TrypLE Express (Invitrogen).
Viability assay was conducted in 96 well microtiter plates seeded with 3000 cells. Cell viability was measured using CellTiter-Glo assay (Promega), according to the manufacturer's instructions. Luminescence was measured using Victor3 FA (Perkin Elmer) microtiter plate reader. Total luminescence was normalized relative to negative control and curve fitting performed using GraphPad Prism (v6.02) software. IC50 was determined using Cell Viability assay, and data was illustrated using GraphPad Prism (version 6.02)
Background: Cellular ATP, detected with luciferase, serves as a proxy for viable cell number.

Another data set relates to RXF 1183. In words: 3D clonogenic assay (PDX). It is filed as cell-based. Particulars: Homo sapiens, RXF 1183, Renal. As for the experimental part:
(§1) The anti-tumor efficacy of S1 in the patient-derived tumor xenograft (PDX) tumor panel was assessed, where the efficacy of S1 in PDX tumor panel in the 96-well format, in 10 concentrations in duplicate was performed. Colony formation of tumor cell suspensions in a soft-agar matrix was observed and quantified. The output is IC50 values and dose response-relationships based on number of colonies in control and treatment wells, as identified by an automated image analysis algorithm. Stock solution of S1 was prepared in 100% DMSO at 10 mM concentration (stored at -20°C) and reused for each experiment. Compound final test concentrations: Dilution series ½ i.e.: 50µM, 15, 5, 1.5, 0.5, 0.15, 0.05, 0.015, 0.005 and 0.0015.
(§2) Tumor xenografts (also referred to as patient-derived tumor xenografts) were passaged as subcutaneous xenografts in NMRI nu/nu mice. Tumor xenograft were removed from mice under sterile conditions, mechanically disaggregated and subsequently incubated with an enzyme cocktail consisting of collagenase type IV (41 U/mL), DNase I (125 U/mL), hyaluronidase type III (100 U/mL) and dispase II (1.0 U/mL) in RPMI 1640 medium at 37°C for 60 - 120 minutes. Cells were passed through sieves of 100 µm and 40 µm mesh size and washed with RPMI 1640 medium. The percentage of viable cells was determined in a Neubauer-hemocytometer using trypan blue exclusion. Aliquots of the cells were frozen down, and stored in liquid nitrogen.
(§3) The clonogenic assay test was carried out in 96 well plate format. For each test a frozen aliquot of tumor cells prepared from tumor xenografts was thawed and assay plates were prepared as follows: each test well contained 3 layers of equal volume, 2 layers of semi-solid medium (bottom and top layer), and one layer of medium supernatant, with or without test compound. The bottom layer consisted of 0.05 mL/well Iscove's Modified Dulbecco's Medium (Invitrogen), supplemented with 20% (v/v) fetal calf serum (Sigma), 0.01% (w/v) gentamicin (Invitrogen) and 0.75% (w/v) agar (BD Biosciences). Tumor cells were added to 0.05 mL of the same culture medium supplemented with 0.4% (w/v) agar and plated onto the bottom layer. After 24 h, test compounds were added after serial dilution in DMSO and transfer in cell culture medium, and left on the cells for the duration of the experiment (continuous exposure, 0.05 mL drug overlay). Every dish included six untreated control wells and drug-treated groups in duplicate at 10 concentrations. Cultures were incubated at 37 °C and 7.5% CO2 in a humidified atmosphere for 8 to 13 days and monitored closely for colony growth using an inverted microscope. Within this period, ex vivo tumor growth lead to the formation of colonies with a diameter of >50 µm. […]

For the next data set, the system named is MAXF 574. The data set can be described thus: 3D clonogenic assay (PDX). The data set is classed as cell-based. To be noted: Homo sapiens, MAXF 574, Breast. As for the experimental part:
as §1, §2, §3

Entries after “also recorded” stand apart in the source; their conditions may differ. Like-named read-outs stand apart in the source and are kept apart here.

Broadly, the IC50 is the concentration needed to halve the response being measured. Turning to `O[C@H](c1cc(-c2ccc(Cl)cc2)nc2ccccc12)[C@@H]1CCCCN1` [S1, (R)-(2-(4-chlorophenyl)quinolin-4-yl)((S)-piperidin-2-yl)methanol], the IC50 is 1.9 to 3.5 µM in data set [1] (Homo sapiens, U3013, positive control cell line, 24, 48 and 72 h); 50 µM with RXF 1183 (read-out: abs. IC50); 50 µM in the data set with RXF 1183 (read-out: rel. IC50); 50 µM in the data set on MAXF 574 (read-out: abs. IC50); 50 µM with MAXF 574 (read-out: rel. IC50). Further, the “in vitro cytotoxicity, comparison of isolated isomers” value in data set [1] (U3013, dose response, CellTiterGlo ATP quantification) was “S1 and S2 exhibit greater in vitro oncolytic potency than the corresponding S3 and S4 isomers; also recorded: S1 and S2 exhibit higher cytotoxicity on cancer cells than S3 and S4”.

Source of the values: EP3064205A1, “Therapeutic use of isomeric forms of 2-(4-chlorophenyl)quinolin-4-yl)(piperidin-2-yl)methanol” (Glionova AB, priority 2015, dated 2016).
